# Patent US20060069132A1, “Azolecarboxamide herbicides” (priority 2004, published 2006)
# Assays:
# kochia = test: Test E pre-/postemergence herbicide test; format: in vivo, Kochia scoparia
# Source text: (§1) Seeds of plant species selected from bipinnate beggarticks (Bidens bipinnata L.), hairy beggarticks (Bidens radiata Thuill.), bermudagrass (Cynodon dactylon (L.) Pers.), Surinam grass (Urochloa decumbens (Staph) R. D. Webster, previously named Brachiaria decumbens Stapf), large crabgrass (Digitaria sanguinalis (L.) Scop.), green foxtail (Setaria viridis (L.) P. Beauv.), goosegrass (Eleusine indica (L.) Gaertn.), johnsongrass (Sorghum halepense (L.) Pers.), kochia (Kochia scoparia (L.) Schrad.), pitted morningglory (Ipomoea lacunosa L.), purple nutsedge (Cyperus rotundus L.), common ragweed (Ambrosia elatior L.), mustard (Brassica nigra (L.) W. D. J. Koch), guineagrass (Panicum maximum Jacq.), dallisgrass (Paspalum dilatatum Poir.), barnyardgrass (Echinochloa crus-galli (L). P. Beauv.), southern sandbur (Cenchrus echinatus L.), common sowthistle (Sonchus oleraceous L.), prickly sida (Sida spinosa L.), Italian ryegrass (Lolium multiflorum Lam.), common purslane (Portulaca oleracea L.), broadleaf signalgrass (Brachiaria platyphylla (Griseb.) Nash), common groundsel (Senecio vulgaris L.), common chickweed (Stellaria media (L.) Vill/Cyr.), tropical spiderwort (Commelina benghalensis L.), annual bluegrass (Poa annua L.), downy bromegrass (Bromus tectorum L.), itchgrass (Rottboellia cochinchinensis (L.) L.f.), quackgrass (Elytrigia repens (L.) Nevski), Canada horseweed (Erigeron Canadensis L.), field bindweed (Convolvulus arvensis L.), spotted spurge (Euphorbia maculata L.), common mallow (Malva sylvestris (=s silvestris) L.), and Russian thistle (Salsola kali L. ssp. Ruthenica (Iljin) Soo) were planted and treated preemergence with test chemicals formulated in a non-phytotoxic solvent mixture which included a surfactant.
# (§2) At the same time, plants selected from these weed species were treated with postemergence applications of some of the test chemicals formulated in the same manner. Plants ranged in height from 2 to 18 cm (1- to 4-leaf stage) for postemergence treatments. Treated plants and controls were maintained in a greenhouse for 12 to 14 days, after which time all species were compared to controls and visually evaluated. Plant response ratings, summarized in Table E, are based on a scale of 0 to 100 where 0 is no effect and 100 is complete control. A dash (-) response means no test result.
# ducksalad = test: Test D flooded paddy test; format: in vivo, Heteranthera limosa; settings: 21 days, scale 0 to 100
# Source text: (§3) Three plastic pots (ca. 16-cm diameter) per rate were partially filled with sterilized Tama silt loam soil comprising a 35:50:15 ratio of sand, silt and clay and 2.6% organic matter. Separate plantings for each of the three pots were as follows. Seeds from the U.S. of ducksalad (Heteranthera limosa (Sw.) Willd.), smallflower umbrella sedge (Cyperus difformis L.) and purple redstem (Ammannia coccinea Rottb.), were planted into one 16-cm pot for each rate. Seeds from the U.S. of rice flatsedge (Cyperus iria L.), bearded sprangletop (Leptochloa fascicularis (Lam.) Gray), one stand of 9 or 10 water seeded rice seedlings (Oryza sativa L. cv. ‘Japonica—M202’), and one stand of 6 transplanted rice seedlings (Oryza sativa L. cv. ‘Japonica—M202’) were planted into one 16-cm pot for each rate. Seeds from the U.S. of barnyardgrass (Echinochloa crus-galli (L.) Beauv.), late watergrass (Echinochloa oryzicola Vasinger), early watergrass (Echinochloa oryzoides (Ard.) Fritsch) and junglerice (Echinochloa colona (L.) Link) were planted into one 16-cm pot for each rate. Plantings were sequential so that crop and weed species were at the 2.0 to 2.5-leaf stage at time of treatment.
# (§4) Potted plants were grown in a greenhouse with day/night temperature settings of 29.5/26.7° C., and supplemental balanced lighting was provided to maintain a 16-hour photoperiod. Test pots were maintained in the greenhouse until test completion.
# (§5) At time of treatment, test pots were flooded to 3 cm above the soil surface, treated by application of test compounds directly to the paddy water, and then maintained at that water depth for the duration of the test. Effects of treatments on rice and weeds were visually evaluated by comparison to untreated controls after 21 days. Plant response ratings are reported on a 0 to 100 scale; where 0 is no effect and 100 is complete control. A dash (-) response means no test result.
# [1] = test system: smallflower umbrella sedge; test: Test D flooded paddy test; format: in vivo, Cyperus difformis; settings: 21 days, scale 0 to 100
# Source text: as §3, §4, §5
# purple redstem = test: Test D flooded paddy test; format: in vivo, Ammannia coccinea; settings: 21 days, scale 0 to 100
# Source text: as §3, §4, §5
# bearded sprangletop = test: Test D flooded paddy test; format: in vivo, Leptochloa fascicularis; settings: 21 days, scale 0 to 100
# Source text: as §3, §4, §5
# [2] = test system: transplanted rice seedlings; test: Test D flooded paddy test; format: in vivo, Oryza sativa; settings: 21 days, scale 0 to 100
# Source text: as §3, §4, §5
# [3] = test system: water seeded rice seedlings; test: Test D flooded paddy test; format: in vivo, Oryza sativa; settings: 21 days, scale 0 to 100
# Source text: as §3, §4, §5
# barnyardgrass = test: Test D flooded paddy test; format: in vivo, Echinochloa crus-galli; settings: 21 days, scale 0 to 100
# Source text: as §3, §4, §5
# late watergrass = test: Test D flooded paddy test; format: in vivo, Echinochloa oryzicola; settings: 21 days, scale 0 to 100
# Source text: as §3, §4, §5
# junglerice = test: Test D flooded paddy test; format: in vivo, Echinochloa colona; settings: 21 days, scale 0 to 100
# Source text: as §3, §4, §5
# bipinnate beggarticks = test: Test E pre-/postemergence herbicide test; format: in vivo, Bidens bipinnata; settings: Preemergence
# Source text: as §1, §2
# [4] = Preemergence, 62 g ai/ha, scale 0 to 100
# [5] = Preemergence, 250 g ai/ha, scale 0 (no effect) to 100 (complete control)
# [6] = Preemergence, 500 g ai/ha, scale 0 (no effect) to 100 (complete control)
# [7] = 250 g ai/ha, scale 0 (no effect) to 100 (complete control)
# [8] = 500 g ai/ha, scale 0 (no effect) to 100 (complete control)
structure (smiles),measurement,setting,value
"CCn1nc(C(C)(C)C)cc1C(=O)Nc1cc(C(=O)N(C)C)ccc1F [Compound 6, N-[5-[(dimethylamino)carbonyl]-2-fluorophenyl]-3-(1,1-dimethylethyl)-1-ethyl-1H-pyrazole-5-carboxamide]","Plant response rating, Kochia","kochia; Postemergence, 500 g ai/ha, scale 0 to 100",100
same,"Plant response rating, Kochia","kochia; Postemergence, 250 g ai/ha, scale 0 to 100",100
same,"Plant response rating, Kochia",kochia; [4],100
same,"Plant response rating, Kochia","kochia; Preemergence, 125 g ai/ha, scale 0 (no effect) to 100 (complete control)",100
same,"Plant response rating, Kochia",kochia; [5],100
same,"Plant response rating, Kochia",kochia; [6],100
same,"Plant response rating, Kochia","kochia; postemergence, 125 g ai/ha, scale 0 to 100",100
same,"Plant response rating, Kochia","kochia; postemergence, 62 g ai/ha, scale 0 to 100",100
CCNC(=O)c1ccnc(NC(=O)c2cc(C(C)(C)C)nn2CC)c1 [Compound 152],"Plant response rating, Ducksalad",ducksalad; 8 g ai/ha,0
same,"Plant response rating, Ducksalad",ducksalad; 16 g ai/ha,70
same,"Plant response rating, Ducksalad",ducksalad; 32 g ai/ha,75
same,"Plant response rating, Ducksalad",ducksalad; 64 g ai/ha,80
same,"Plant response rating, Ducksalad",ducksalad; 125 g ai/ha,90
same,"Plant response rating, Sedge, Umbrella",[1]; 8 g ai/ha,0
same,"Plant response rating, Sedge, Umbrella",[1]; 16 g ai/ha,70
same,"Plant response rating, Sedge, Umbrella",[1]; 32 g ai/ha,75
same,"Plant response rating, Sedge, Umbrella",[1]; 64 g ai/ha,85
same,"Plant response rating, Sedge, Umbrella",[1]; 125 g ai/ha,95
same,"Plant response rating, Redstem",purple redstem; 8 g ai/ha,0
same,"Plant response rating, Redstem",purple redstem; 16 g ai/ha,0
same,"Plant response rating, Redstem",purple redstem; 32 g ai/ha,60
same,"Plant response rating, Redstem",purple redstem; 64 g ai/ha,85
same,"Plant response rating, Redstem",purple redstem; 125 g ai/ha,90
same,"Plant response rating, Sprangletop, Bearded",bearded sprangletop; 8 g ai/ha,30
same,"Plant response rating, Sprangletop, Bearded",bearded sprangletop; 16 g ai/ha,30
same,"Plant response rating, Sprangletop, Bearded",bearded sprangletop; 32 g ai/ha,30
same,"Plant response rating, Sprangletop, Bearded",bearded sprangletop; 64 g ai/ha,35
same,"Plant response rating, Sprangletop, Bearded",bearded sprangletop; 125 g ai/ha,40
same,"Plant response rating, Rice, Transplanted",[2]; 8 g ai/ha,0
same,"Plant response rating, Rice, Transplanted",[2]; 16 g ai/ha,20
same,"Plant response rating, Rice, Transplanted",[2]; 32 g ai/ha,25
same,"Plant response rating, Rice, Transplanted",[2]; 64 g ai/ha,40
same,"Plant response rating, Rice, Transplanted",[2]; 125 g ai/ha,45
same,"Plant response rating, Rice, Water Seeded",[3]; 8 g ai/ha,0
same,"Plant response rating, Rice, Water Seeded",[3]; 16 g ai/ha,20
same,"Plant response rating, Rice, Water Seeded",[3]; 32 g ai/ha,30
same,"Plant response rating, Rice, Water Seeded",[3]; 64 g ai/ha,40
same,"Plant response rating, Rice, Water Seeded",[3]; 125 g ai/ha,45
same,"Plant response rating, Barnyardgrass",barnyardgrass; 8 g ai/ha,0
same,"Plant response rating, Barnyardgrass",barnyardgrass; 16 g ai/ha,0
same,"Plant response rating, Barnyardgrass",barnyardgrass; 32 g ai/ha,0
same,"Plant response rating, Barnyardgrass",barnyardgrass; 64 g ai/ha,10
same,"Plant response rating, Barnyardgrass",barnyardgrass; 125 g ai/ha,35
same,"Plant response rating, Watergrass, Late",late watergrass; 8 g ai/ha,0
same,"Plant response rating, Watergrass, Late",late watergrass; 16 g ai/ha,0
same,"Plant response rating, Watergrass, Late",late watergrass; 32 g ai/ha,15
same,"Plant response rating, Watergrass, Late",late watergrass; 64 g ai/ha,20
same,"Plant response rating, Watergrass, Late",late watergrass; 125 g ai/ha,40
same,"Plant response rating, Junglerice",junglerice; 8 g ai/ha,0
same,"Plant response rating, Junglerice",junglerice; 16 g ai/ha,0
same,"Plant response rating, Junglerice",junglerice; 32 g ai/ha,0
same,"Plant response rating, Junglerice",junglerice; 64 g ai/ha,0
same,"Plant response rating, Junglerice",junglerice; 125 g ai/ha,30
same,"Plant response rating, Kochia",kochia; [4],0
same,"Plant response rating, Kochia","kochia; Preemergence, 125 g ai/ha, scale 0 to 100",85
same,"Plant response rating, Kochia",kochia; [5],85
same,"Plant response rating, Kochia",kochia; [6],95
CCc1nc(C(C)(C)C)sc1C(=O)Nc1cccc(C(=O)NCC2CC2)n1 [Compound 215],"Plant response rating, Ducksalad",ducksalad; 125 g ai/ha,0
same,"Plant response rating, Ducksalad",ducksalad; 250 g ai/ha,0
same,"Plant response rating, Ducksalad",ducksalad; 500 g ai/ha,20
same,"Plant response rating, Ducksalad",ducksalad; 750 g ai/ha,20
same,"Plant response rating, Ducksalad",ducksalad; 1000 g ai/ha,75
same,"Plant response rating, Sedge, Umbrella",[1]; 125 g ai/ha,20
same,"Plant response rating, Sedge, Umbrella",[1]; 250 g ai/ha,95
same,"Plant response rating, Sedge, Umbrella",[1]; 500 g ai/ha,95
same,"Plant response rating, Sedge, Umbrella",[1]; 750 g ai/ha,95
same,"Plant response rating, Sedge, Umbrella",[1]; 1000 g ai/ha,100
same,"Plant response rating, Redstem",purple redstem; 125 g ai/ha,0
same,"Plant response rating, Redstem",purple redstem; 250 g ai/ha,100
same,"Plant response rating, Redstem",purple redstem; 500 g ai/ha,100
same,"Plant response rating, Redstem",purple redstem; 750 g ai/ha,100
same,"Plant response rating, Redstem",purple redstem; 1000 g ai/ha,100
same,"Plant response rating, Sprangletop, Bearded",bearded sprangletop; 125 g ai/ha,20
same,"Plant response rating, Sprangletop, Bearded",bearded sprangletop; 250 g ai/ha,20
same,"Plant response rating, Sprangletop, Bearded",bearded sprangletop; 500 g ai/ha,20
same,"Plant response rating, Sprangletop, Bearded",bearded sprangletop; 750 g ai/ha,20
same,"Plant response rating, Sprangletop, Bearded",bearded sprangletop; 1000 g ai/ha,20
same,"Plant response rating, Rice, Transplanted",[2]; 125 g ai/ha,0
same,"Plant response rating, Rice, Transplanted",[2]; 250 g ai/ha,10
same,"Plant response rating, Rice, Transplanted",[2]; 500 g ai/ha,20
same,"Plant response rating, Rice, Transplanted",[2]; 750 g ai/ha,20
same,"Plant response rating, Rice, Transplanted",[2]; 1000 g ai/ha,35
same,"Plant response rating, Rice, Water Seeded",[3]; 125 g ai/ha,20
same,"Plant response rating, Rice, Water Seeded",[3]; 250 g ai/ha,35
same,"Plant response rating, Rice, Water Seeded",[3]; 500 g ai/ha,45
same,"Plant response rating, Rice, Water Seeded",[3]; 750 g ai/ha,45
same,"Plant response rating, Rice, Water Seeded",[3]; 1000 g ai/ha,45
same,"Plant response rating, Barnyardgrass",barnyardgrass; 125 g ai/ha,0
same,"Plant response rating, Barnyardgrass",barnyardgrass; 250 g ai/ha,0
same,"Plant response rating, Barnyardgrass",barnyardgrass; 500 g ai/ha,0
same,"Plant response rating, Barnyardgrass",barnyardgrass; 750 g ai/ha,30
same,"Plant response rating, Barnyardgrass",barnyardgrass; 1000 g ai/ha,40
same,"Plant response rating, Watergrass, Late",late watergrass; 125 g ai/ha,0
same,"Plant response rating, Watergrass, Late",late watergrass; 250 g ai/ha,0
same,"Plant response rating, Watergrass, Late",late watergrass; 500 g ai/ha,20
same,"Plant response rating, Watergrass, Late",late watergrass; 750 g ai/ha,20
same,"Plant response rating, Watergrass, Late",late watergrass; 1000 g ai/ha,20
same,"Plant response rating, Junglerice",junglerice; 125 g ai/ha,0
same,"Plant response rating, Junglerice",junglerice; 250 g ai/ha,0
same,"Plant response rating, Junglerice",junglerice; 500 g ai/ha,20
same,"Plant response rating, Junglerice",junglerice; 750 g ai/ha,25
same,"Plant response rating, Junglerice",junglerice; 1000 g ai/ha,25
CCc1nn(C(C)(C)CC)nc1C(=O)Nc1cccc(C(=O)N(C)C)c1 [Compound 372],"Plant response rating, Beggarticks, Bip.","bipinnate beggarticks; 62 g ai/ha, scale 0 to 100",10
same,"Plant response rating, Beggarticks, Bip.","bipinnate beggarticks; 125 g ai/ha, scale 0 to 100",40
same,"Plant response rating, Beggarticks, Bip.",bipinnate beggarticks; [7],50
same,"Plant response rating, Beggarticks, Bip.",bipinnate beggarticks; [8],60
Cc1nn(C(C)(C)C)nc1C(=O)Nc1cccc(C(=O)N(C)C)c1 [Compound 391],"Plant response rating, Beggarticks, Bip.","bipinnate beggarticks; 62 g ai/ha, scale 0 to 100",40
same,"Plant response rating, Beggarticks, Bip.","bipinnate beggarticks; 125 g ai/ha, scale 0 to 100",80
same,"Plant response rating, Beggarticks, Bip.",bipinnate beggarticks; [7],100
same,"Plant response rating, Beggarticks, Bip.",bipinnate beggarticks; [8],100
